Measured values published in publication PMC3169616, “Unique Residues Involved in Activation of the Multitasking Protease/Chaperone HtrA from Chlamydia trachomatis” (PLoS ONE, 2011).

Assays:
CtHtrA = target: T1, CtHtrA (Chlamydia trachomatis serovar D, UniProt P18584); assay: MS and MS-MS analysis of peptide cleavage products; type: biochemical; conditions: data not shown
T1 construct: His-tag; made in house; host or cells: E. coli BL21 (DE3), plasmid pETHtrA
T1 sequence (P18584 17-497): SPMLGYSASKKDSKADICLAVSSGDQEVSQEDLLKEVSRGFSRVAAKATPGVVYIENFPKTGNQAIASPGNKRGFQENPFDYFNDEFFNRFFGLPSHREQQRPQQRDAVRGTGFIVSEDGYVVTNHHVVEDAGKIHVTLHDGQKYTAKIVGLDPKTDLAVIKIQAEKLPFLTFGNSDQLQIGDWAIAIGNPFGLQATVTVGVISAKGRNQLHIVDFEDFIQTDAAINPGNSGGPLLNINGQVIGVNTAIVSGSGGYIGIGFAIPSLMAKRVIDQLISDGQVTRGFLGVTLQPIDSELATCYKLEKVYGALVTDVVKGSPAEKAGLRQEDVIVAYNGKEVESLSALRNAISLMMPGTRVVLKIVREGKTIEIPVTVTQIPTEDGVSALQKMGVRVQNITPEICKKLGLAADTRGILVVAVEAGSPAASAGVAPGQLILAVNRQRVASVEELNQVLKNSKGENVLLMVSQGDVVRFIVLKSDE
Procedure: Bcas1 and Act1 peptides (150 µM concentration) digested with CtHtrA (71 µg) were analysed by online LC/MS/MS using a QStar Pulsar I (Applied Biosystems) in […] mode. Data acquired were converted into mzXML format using proteowizard (v2) and searched using ([…], the global proteome machine, ftp://ftp.thegpm.org/fasta/cRAP), against CtHtrA and Act1 and Bcas1 peptide sequences with an included decoy database of the reverse sequence for each protein. The search also included potential mass modifications accounting for the additional […] moieties on the N and C peptide termini, respectively. Matches with an expected ratio of <1 were considered identified. All raw data and mass spectra can be made available on request.

CtHtrA I365D = assay: Act1 activation of Bcas1 proteolysis by mutated protein; type: biochemical, Chlamydia trachomatis; conditions: I365D mutant; Act1 120 µM
Excerpt: (§1) The hexameric CtHtrA molecular model was examined to identify the putative PDZ1 activator binding cleft (Fig. 4). The base of this cleft in CtHtrA is a hydrophobic pocket formed by the residues L302 and I365 (V328 in E. coli DegP) (Fig. 4). L302 and I365 were targeted for site directed mutagenesis (L302N and I365D) to make this non-polar pocket either polar or charged. The role of a potential conformational change caused by movement of the whole PDZ1 domain relative to the protease subunit was also tested by mutating a highly conserved arginine residue (R299W) on the flexible loop between the protease and PDZ domains. This mutation was made in order to alter the flexibility around this residue while occupying a similar sized area. Additionally, a second mutation was made in conjunction with the R299W mutation on the residue R373A which potentially forms a salt bridge between the PDZ domain and protease domain. This double mutation was made in order to reduce the flexibility and disrupt the mobile salt bridge involved in the PDZ1:protease domain interface. The R373A mutation was also made independently of R299W. These mutated proteins were assayed to examine the impact of the changes on Act1 activation on the Bcas1 substrate proteolysis. […]
(§2) The purified recombinant protein was examined by Coomassie stained polyacrylamide gels and activity was checked using ß-casein cleavage assays prior to use in peptide assays. […] Protease assays using pNA labelled peptides were conducted using the xMARK Microplate spectrophotometer (Bio-Rad) at 405 nm, incubated at 37°C, with a reading taken every 10 s for 30 min. The maximum slope over a minimum of 8 readings was used for the data analysis. […] The assays were excited at 340 nm and emission was detected at 405 nm with a gain of 1000, the assays were monitored every 20 s or at the minimum cycle time for up to 40 min. […] The assay results shown for the fluorescent compounds have been normalised for the amount of fluorescent emission detected using a standard curve of known concentrations of the MCA fluorophore under the identical assay conditions. […]

CtHtrA R299W/R373A = assay: as above; type: biochemical, Chlamydia trachomatis; conditions: R299W/R373A mutant; Act1 120 µM
Excerpt: as §1, §2

CtHtrA R373A = assay: as above; type: biochemical, Chlamydia trachomatis; conditions: R373A mutant; Act1 120 µM
Excerpt: as §1, §2

H-VLGPVRGPFPIIV-OH [Act1]
cleavage of activator peptide by CtHtrA, MALDI MS MS (CtHtrA): No evidence of Act1 cleavage
effect of Act1 on Bcas1 proteolysis rate (CtHtrA I365D): failed to increase the proteolysis rate
effect of Act1 on Bcas1 proteolysis rate (CtHtrA R299W/R373A): failed to increase the proteolysis rate
effect of Act1 on Bcas1 proteolysis rate (CtHtrA R373A): failed to increase the proteolysis rate
